# Values quoted from earlier work in patent publication US6464987B1, “Pharmaceutical compositions capable of being gelled” (UCB, S.A., priority 1998, dated 2002).
# Like-named read-outs stand apart in the source and are kept apart here.
# Legend:
# [1] = mouse, in vivo
# [2] = tested on: humans; details: PLA-GA implants or PLA-GA microparticles
bioavailability ([1]; im),bioavailability ([1]; sc),Compound,level of testosterone in the blood [2]
31.4%,67.5%,"NC(=O)[C@@H]1CCCN1C(=O)[C@H](Cc1cnc[nH]1)NC(=O)[C@@H]1CCC(=O)N1 [TRH, thyrotropin releasing hormone]",
,,CC(C)C[C@H](NC(=O)[C@@H](COC(C)(C)C)NC(=O)[C@H](Cc1ccc(O)cc1)NC(=O)[C@H](CO)NC(=O)[C@H](Cc1c[nH]c2ccccc12)NC(=O)[C@H](Cc1cnc[nH]1)NC(=O)[C@@H]1CCC(=O)N1)C(=O)N[C@@H](CCCNC(=N)N)C(=O)N1CCC[C@H]1C(=O)NNC(N)=O [gosereline],very significant and lasting decrease
